{"source": "paper PMC2409895", "about": "“Antitumour efficacy of VEGFR2 tyrosine kinase inhibitor correlates with expression of VEGF and its receptor VEGFR2 in tumour models” (British Journal of Cancer, 2004)", "key": {"human VEGFR kinase 1": {"biological_target": "T1, human VEGFR kinase 1 (Homo sapiens, UniProt P17948)", "T1 construct": "GST-fusion protein encoding the catalytic carboxyl-terminus of human VEGFR kinase 1, 2, or 3; made in house; host or cells: baculovirus expression system", "T1 sequence (P17948 827-1158 limits assumed)": "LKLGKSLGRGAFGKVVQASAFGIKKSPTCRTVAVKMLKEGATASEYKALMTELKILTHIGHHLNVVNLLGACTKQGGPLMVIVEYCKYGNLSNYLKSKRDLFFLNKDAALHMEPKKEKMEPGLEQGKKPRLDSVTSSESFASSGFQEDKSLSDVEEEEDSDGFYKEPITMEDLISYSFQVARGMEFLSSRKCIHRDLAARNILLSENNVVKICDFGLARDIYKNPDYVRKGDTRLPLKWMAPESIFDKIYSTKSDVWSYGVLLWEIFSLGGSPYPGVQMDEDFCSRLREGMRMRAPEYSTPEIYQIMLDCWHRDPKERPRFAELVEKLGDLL", "assay": "VEGFR1 kinase assay (HTRF)", "type": "biochemical", "method": "Vascular endothelial growth factor receptor kinase assays were carried out in a homogenous time-resolved fluorescence (HTRF) format in 384-well microtitre plates using a purified, baculovirus-expressed GST-fusion protein encoding the catalytic carboxyl-terminus of human VEGFR kinase 1, 2, or 3. Reactions were initiated by the addition of 10 μl of activated VEGFR kinase (1 nM, 0.1 M HEPES pH 7.5, 0.1 mg ml^−1 BSA, and 0.30 mM DTT) to 10 μl of substrate (360 nM biotin-aminohexyl-EEEEYFELVAKKKK-NH2 peptide, 75 μM ATP, 10 mM MgCl2) and 1 μl of small molecule inhibitor at various concentrations. Plates were incubated at room temperature for 60 min, and the reaction was stopped by the addition of 20 μl 100 mM EDTA. Homogenous time-resolved fluorescence reagents (20 μl 15 nM streptavidin-linked allophycocyanin, 1 nM europium-labelled anti-phosphotyrosine antibody in 0.1 M HEPES, pH 7.5, 0.1 mg ml^−1 BSA) were added and plates were incubated for a minimum of 10 min. The fluorescence at 665 nm was measured with a Victor plate reader (Wallac, Shelton, CT, USA) using a time delay of 50 μs. […] Data were fitted with a curve described by: y=((Vmax × x)/(K+x)+Y2), where Vmax is the upper asymptote, Y2 is the Y intercept, and K is the IC50."}, "SRC": {"biological_target": "T2, SRC (Homo sapiens, UniProt P12931)", "T2 construct": "Each kinase assay was conducted using purified recombinant catalytic domain of the enzyme", "T2 sequence (P12931 270-523 limits assumed, species assumed)": "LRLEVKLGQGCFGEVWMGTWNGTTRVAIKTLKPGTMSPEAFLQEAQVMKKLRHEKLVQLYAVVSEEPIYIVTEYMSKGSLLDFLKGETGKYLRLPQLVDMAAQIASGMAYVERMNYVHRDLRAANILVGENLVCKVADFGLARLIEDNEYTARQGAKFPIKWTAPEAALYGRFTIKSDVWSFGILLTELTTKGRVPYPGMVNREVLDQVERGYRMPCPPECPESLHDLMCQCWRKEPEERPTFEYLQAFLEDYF", "assay": "SRC kinase assay (HTRF)", "type": "biochemical", "method": "(§1) Inhibition of several other kinases by small molecules was also determined. Each kinase assay was conducted using purified recombinant catalytic domain of the enzyme. The concentration of ATP and kinase-specific biotinylated peptide in each assay was below the apparent Km of the respective substrate. Inhibition of c-Fms, SRC, and Tie-2 was evaluated by an HTRF format and the inhibition of CDK2, CDK4, EGFR, ErbB2, and Eph-B4 was detected by scintillation proximity assay."}, "Tie2": {"biological_target": "T3, Tie2 (Homo sapiens, UniProt Q02763)", "T3 construct": "Each kinase assay was conducted using purified recombinant catalytic domain of the enzyme", "T3 sequence (Q02763 824-1096 limits assumed, species assumed)": "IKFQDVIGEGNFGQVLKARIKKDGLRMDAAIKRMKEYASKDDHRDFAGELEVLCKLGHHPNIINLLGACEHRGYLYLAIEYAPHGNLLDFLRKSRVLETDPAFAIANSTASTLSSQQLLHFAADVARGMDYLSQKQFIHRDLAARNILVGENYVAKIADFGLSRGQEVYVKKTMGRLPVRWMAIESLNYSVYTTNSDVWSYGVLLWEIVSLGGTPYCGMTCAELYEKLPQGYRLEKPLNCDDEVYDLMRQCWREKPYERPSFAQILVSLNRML", "assay": "Tie-2 kinase assay (HTRF)", "type": "biochemical", "method": "as §1"}, "CDK2": {"biological_target": "T4, CDK2 (Homo sapiens, UniProt P24941)", "T4 construct": "Each kinase assay was conducted using purified recombinant catalytic domain of the enzyme", "assay": "CDK2 kinase assay (scintillation proximity)", "type": "biochemical", "method": "as §1"}, "CDK4": {"biological_target": "T5, CDK4 (Homo sapiens, UniProt P11802)", "T5 construct": "Each kinase assay was conducted using purified recombinant catalytic domain of the enzyme", "T5 sequence (P11802 6-295 limits assumed, species assumed)": "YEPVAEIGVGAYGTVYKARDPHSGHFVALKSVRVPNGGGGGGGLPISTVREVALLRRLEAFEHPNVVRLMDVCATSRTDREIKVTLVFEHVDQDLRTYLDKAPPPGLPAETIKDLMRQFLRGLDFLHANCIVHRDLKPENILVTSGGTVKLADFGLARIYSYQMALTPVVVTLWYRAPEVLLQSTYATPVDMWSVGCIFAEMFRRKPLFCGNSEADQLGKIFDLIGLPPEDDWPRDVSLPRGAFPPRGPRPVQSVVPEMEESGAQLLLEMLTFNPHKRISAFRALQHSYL", "T5 sequence (P24385 whole entry partner, species assumed, the tested form may be a part)": "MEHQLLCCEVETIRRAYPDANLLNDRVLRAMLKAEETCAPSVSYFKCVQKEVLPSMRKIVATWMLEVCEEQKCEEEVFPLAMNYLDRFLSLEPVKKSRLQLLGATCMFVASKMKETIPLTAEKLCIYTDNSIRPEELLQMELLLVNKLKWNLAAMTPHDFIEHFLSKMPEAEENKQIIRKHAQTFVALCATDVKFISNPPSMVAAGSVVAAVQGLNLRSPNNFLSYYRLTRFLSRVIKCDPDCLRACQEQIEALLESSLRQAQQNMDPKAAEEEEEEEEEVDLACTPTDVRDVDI", "assay": "CDK4 kinase assay (scintillation proximity)", "type": "biochemical", "method": "as §1"}, "[1]": {"test_system": "HUVEC grown in presence of bFGF", "assay": "bFGF-induced HUVEC proliferation (BrdU incorporation)", "type": "cell-based", "conditions": "Homo sapiens, bFGF 0.3 ng ml^−1, 72 h", "method": "Effect of kinase inhibitors on cell proliferation was measured using BrdU incorporation method using commercially available kits (Roche Diagnostics, Indianapolis, IN, USA). Briefly, HUVEC were seeded in a medium containing 5% FBS in type 1 Collagen-coated 96-well plates and incubated overnight at 37°C, 5% CO2. The medium was aspirated from the cells, and various concentrations of kinase inhibitors in serum-free medium were added to each well. After 30 min, VEGF (10 ng ml^−1) or bFGF (0.3 ng ml^−1) was added to the wells. Cells were incubated for an additional 72 h and BrdU (10 μM) was added during the last 18–24 h of incubation. Data were fitted with a curve described by the equation, y=Vmax × (1−(x/(K+x))), where K is equal to the IC50."}, "HT29 xenograft": {"test_system": "HT29 xenograft", "assay": "HT29 tumour xenograft growth inhibition", "type": "in vivo, nude mice", "conditions": "for % Inhibition of tumour growth: vs vehicle", "method": "(§2) Tumours were initiated by injection of tumour cell suspension subcutaneously in 8–12-week-old nude mice, except PC3 tumours that were grown in SCID mice (Charles River Laboratories, Wilmington, MA, USA). When tumours reached a volume of 100–200 mm^3, mice were randomised into groups of eight prior to treatment with VEGFR kinase inhibitors. Animals were treated with kinase inhibitors (10, 30, or 100 mg kg^−1) or vehicle (0.5% hydroxypropyl methyl cellulose, 0.1% Tween 80 in sterile water), administered once or twice daily by oral gavage for 2–3 weeks (till the mean tumour volume reached 1000–1500 mm^3). Tumour volume was measured twice weekly by calipers, using the formula (length × width × width × 0.5), where length was the longest diameter across the tumour, and width was the corresponding perpendicular. Tumour growth inhibition was calculated by change in the slopes of tumour growth for control and treated tumours. The oral dose of GW654652 producing 50% inhibition of tumour growth (ED50, mg kg^−1) was estimated by a programme that performed a weighted nonlinear regression analysis of data using the equation: y=Vmax(1−(x/(K+x))), where K is equal to ED50. All animal studies were carried out with the appropriate institutional ethical committee approval and they met the standards of both the US federal regulations and those required by the UKCCCR guidelines ([Workman et al, 1998])."}, "HCT116 xenograft": {"test_system": "HCT116 xenograft", "assay": "HCT116 tumour xenograft growth inhibition", "type": "in vivo, nude mice", "conditions": "for % Inhibition of tumour growth: vs vehicle", "method": "as §2"}, "SW620 xenograft": {"test_system": "SW620 xenograft", "assay": "SW620 tumour xenograft growth inhibition", "type": "in vivo, nude mice", "conditions": "for % Inhibition of tumour growth: vs vehicle", "method": "as §2"}, "Pharmacokinetics in mice": {"assay": "Pharmacokinetics in mice", "type": "in vivo, mouse", "conditions": "for free Cmax: mice, based on 99% protein binding and total plasma concentration"}, "Pharmacokinetics in dog": {"assay": "Pharmacokinetics in dog", "type": "in vivo"}, "[2]": {"conditions": "ratio of IC50 of the kinase to IC50 vs VEGFR-2"}}, "data": [{"smiles": "CCS(=O)(=O)c1ccc(OC)c(Nc2nccc(N(C)c3ccc4c(C)n[nH]c4c3)n2)c1", "note": "[GW654652, N^2-[5-(ethylsulphonyl)-2-methoxyphenyl]-N^4-methyl-N^4-(3-methyl-1H-indazol-6-yl)pyrimidine-2,4-diamine]", "values": [{"measurement": "IC50", "setting": "human VEGFR kinase 1; mean±s.e.", "value": "12 ± 2.6", "unit": "nM"}, {"measurement": "Fold selectivity vs VEGFR-2, VEGFR-1", "setting": "human VEGFR kinase 1; [2]", "value": 5.3}, {"measurement": "IC50", "setting": "SRC; mean±s.e.", "value": "350 ± 240", "unit": "nM"}, {"measurement": "Fold selectivity vs VEGFR-2, SRC", "setting": "SRC; [2]", "value": 156}, {"measurement": "IC50", "setting": "Tie2; mean±s.e.", "value": "320 ± 40", "unit": "nM"}, {"measurement": "Fold selectivity vs VEGFR-2, Tie2", "setting": "Tie2; [2]", "value": 144}, {"measurement": "IC50", "setting": "CDK2", "value": "> 20000", "unit": "nM"}, {"measurement": "Fold selectivity vs VEGFR-2, CDK2", "setting": "CDK2; [2]", "value": ">8800"}, {"measurement": "IC50", "setting": "CDK4", "value": "> 20000", "unit": "nM"}, {"measurement": "Fold selectivity vs VEGFR-2, CDK4", "setting": "CDK4; [2]", "value": ">8800"}, {"measurement": "IC50", "setting": "[1]", "value": 1980, "unit": "nM"}, {"measurement": "% Inhibition of tumour growth", "setting": "HT29 xenograft; HT29, 10 mg kg^−1 oral once daily", "value": 5, "unit": "%"}, {"measurement": "% Inhibition of tumour growth", "setting": "HT29 xenograft; HT29, 30 mg kg^−1 oral once daily", "value": 69, "unit": "%"}, {"measurement": "% Inhibition of tumour growth", "setting": "HT29 xenograft; HT29, 100 mg kg^−1 oral once daily", "value": 98, "unit": "%"}, {"measurement": "ED50", "setting": "HT29 xenograft; HT29, oral dose producing 50% inhibition of tumour growth", "value": "20 ± 8", "unit": "mg/kg/day"}, {"measurement": "% Inhibition of tumour growth", "setting": "HCT116 xenograft; HCT116, 10 mg kg^−1 oral once daily", "value": 18, "unit": "%"}, {"measurement": "% Inhibition of tumour growth", "setting": "HCT116 xenograft; HCT116, 30 mg kg^−1 oral once daily", "value": 59, "unit": "%"}, {"measurement": "% Inhibition of tumour growth", "setting": "HCT116 xenograft; HCT116, 100 mg kg^−1 oral once daily", "value": 71, "unit": "%"}, {"measurement": "ED50", "setting": "HCT116 xenograft; HCT116, oral dose producing 50% inhibition of tumour growth", "value": "21 ± 8", "unit": "mg/kg/day"}, {"measurement": "% Inhibition of tumour growth", "setting": "SW620 xenograft; SW620, 10 mg kg^−1 oral once daily", "value": 12, "unit": "%"}, {"measurement": "% Inhibition of tumour growth", "setting": "SW620 xenograft; SW620, 30 mg kg^−1 oral once daily", "value": 44, "unit": "%"}, {"measurement": "% Inhibition of tumour growth", "setting": "SW620 xenograft; SW620, 100 mg kg^−1 oral once daily", "value": 74, "unit": "%"}, {"measurement": "ED50", "setting": "SW620 xenograft; SW620, oral dose producing 50% inhibition of tumour growth", "value": "46 ± 11", "unit": "mg/kg/day"}, {"measurement": "free Cmax", "setting": "Pharmacokinetics in mice; oral 10 mg kg^−1", "value": 60, "unit": "nM"}, {"measurement": "free Cmax", "setting": "Pharmacokinetics in mice; oral 30 mg kg^−1", "value": 230, "unit": "nM"}, {"measurement": "free Cmax", "setting": "Pharmacokinetics in mice; oral 100 mg kg^−1", "value": 1380, "unit": "nM"}, {"measurement": "pharmacokinetic profile", "setting": "Pharmacokinetics in mice; mouse", "value": "good pharmacokinetic profile"}, {"measurement": "pharmacokinetic profile", "setting": "Pharmacokinetics in dog", "value": "good pharmacokinetic profile"}]}]}
